Data on 2 compounds can be found in patent US20160235824A1, “Compositions and Methods for Increasing the Half-Life of Factor XA” (THE CHILDREN'S HOSPITAL OF PHILADELPHIA, priority 2013, published 2016).

One data set has as its system citrated human blood. The experiment in a line: rotational thromboelastography (ROTEM) in whole blood. Particulars: 250 nM apixaban alone vs untreated (PBS) control blood. The method, then: FIG. 2 provides a graph of rotational thromboelastograms performed using freshly collected, citrated human blood treated with 25 μg/mL corn trypsin inhibitor (to minimize variation in samples). […] Phosphate buffered saline (PBS) was added to one sample instead of apixaban […].
A coagulation initiator is added, and as the blood clots, rotation of the pin is restricted, which is detected optically by the instrument.

The conditions of data set [1]: cited from earlier work.
Data set [2] relates to normal human platelet poor plasma (PPP). The experiment in a line: thrombin generation assay (TGA) in platelet poor plasma. The class given is biochemical.
In data set [3] the target is FXa-antithrombin III (FXa-ATIII) complex (Homo sapiens, UniProt P00742). The data set is described as follows: FXa-antithrombin III complex formation in FX deficient plasma (ELISA). Particulars: 100 nM or 1 μM rivaroxaban. The class given is biochemical.
The nature of data set [4]: tail-clip hemostasis experiments in mice. The class given is in vivo.

SMILES strings stand for the structures. Entries after “also recorded” stand apart in the source; their conditions may differ.

Chain of FXa-antithrombin III (FXa-ATIII) complex (P00742 235-488 limits assumed): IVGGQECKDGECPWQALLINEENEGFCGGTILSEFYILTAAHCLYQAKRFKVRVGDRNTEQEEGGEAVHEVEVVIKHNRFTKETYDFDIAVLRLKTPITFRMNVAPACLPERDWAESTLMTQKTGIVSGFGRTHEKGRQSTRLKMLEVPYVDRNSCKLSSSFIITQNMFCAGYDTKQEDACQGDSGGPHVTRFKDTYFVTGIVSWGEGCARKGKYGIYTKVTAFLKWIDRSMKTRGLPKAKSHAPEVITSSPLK
Chain of FXa-antithrombin III (FXa-ATIII) complex (P00742 41-179 limits assumed): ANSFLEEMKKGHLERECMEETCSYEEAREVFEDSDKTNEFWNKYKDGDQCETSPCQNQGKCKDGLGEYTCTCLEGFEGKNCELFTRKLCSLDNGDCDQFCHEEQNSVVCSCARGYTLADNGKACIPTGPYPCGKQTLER

As to `COc1ccc(-n2nc(C(N)=O)c3c2C(=O)N(c2ccc(N4CCCCC4=O)cc2)CC3)cc1` [apixaban], the “effect on clot time” value in the data set with citrated human blood was “prolonged the clot time”; in the data set on citrated human blood (listed as Apixaban), “prolonged the clot time substantially”. In addition, in data set [1], the plasma protein binding result is on record as “heavily protein-bound”.
Turning to `O=C(NC[C@H]1CN(c2ccc(N3CCOCC3=O)cc2)C(=O)O1)c1ccc(Cl)s1` [rivaroxaban], the peak thrombin generation in data set [2] (500 nM rivaroxaban alone) was ~10 % of normal. Further, the “effect on thrombin generation” value was “completely abrogated thrombin generation” in data set [2] (2.5 μM rivaroxaban alone) and “profoundly decrease thrombin generation; also recorded: dose-dependently inhibited thrombin generation” in data set [2] (inhibitor alone added to normal human plasma (PPP)). For the same compound, in data set [3], the “effect on FXa-ATIII complex formation” value is reported as “dose-dependently inhibited”. For the same compound, in data set [4] (50 mg/kg rivaroxaban alone), the blood loss is listed as 217 % of normal. In addition, the “effect on blood loss” value in data set [4] (rivaroxaban alone) is given as “dose-dependently increased blood loss”. In addition, the plasma protein binding entry in data set [1] is listed as “heavily protein-bound”.
